Two molecules from US20210052771A1, “NANOPARTICULATE MINERALIZED COLLAGEN GLYCOSAMINOGLYCAN SCAFFOLD WITH AN ANTI-RESORPTION FACTOR” (THE REGENTS OF THE UNIVERSITY OF CALIFORNIA, priority 2018, published 2021) can be followed below.

Assay [1] relates to canonical BMP receptor signaling pathway. Briefly: Western blot of hMSCs on Col-GAG and MC-GAG with DMH1. The format is cell-based, human. Particulars: 50 μM. How it is done: (§1) Osteogenic differentiation of hMSCs on Col-GAG and MC-GAG: 3×10^5 hMSCs were seeded onto 8 mm discs of CG-GAG and MC-GAG scaffolds in proliferation media. 24 h after seeding, media was switched to osteogenic differentiation media consisting of 10 mM β-glycerophosphate, 50 μg/mL ascorbic acid, and 0.1 μM dexamethasone. For inhibitor studies, scaffolds were treated or untreated with dorsomorphin homologue 1 (DMH1; Sigma-Aldrich) or PD98059 (Cell Signaling Technologies, Beverly, Mass.) separately, all at a concentration of 50 μM. Fresh DMH1 and PD98059 were added to each media change every 3 days.
(§2) Western blot: Lysates were prepared from scaffolds at 0, 4, 14, and 24 days of culture using SDS sample buffer and equal amounts were subjected to 4-20% SDS-PAGE (Bio-Rad, Hercules, Calif.). Western blot analysis was carried out with antibodies against OPG, RANKL, phosphorylated small mothers against decapentaplegic 1/5 (p-Smad1/5), total Smad5, phosphorylated extracellular regulated kinase 1/2 (p-ERK1/2), total ERK1/2, and (3-actin followed by 1:4000 dilutions of HRP-conjugated IgG antibodies (Bio-Rad, Hercules, Calif.) and an enhanced chemiluminescent substrate (Thermo Scientific, Rockford, Ill.). For detection of p-Smad1/5 and total Smad5, 10 μg of lysate was loaded per lane. For detection of OPG, RANKL, p-ERK1/2, total ERK1/2, and β-actin, 20 μg of lysate was loaded per lane. All antibodies were obtained from Cell Signaling Technologies (Beverly, Mass.) with the exception of RANKL, OPG and β-actin antibodies which were obtained from Santa Cruz Biotechnology (Santa Cruz, Calif.). Imaging analysis was carried out using ImageJ (NIH, Bethesda, Md.).

Assay [2] deals with MEK1/ERK1/2 signaling pathway. Briefly: Western blot of hMSCs on Col-GAG and MC-GAG with PD98059. The conditions noted are these: 50 μM. It counts as cell-based, human. How it is done:
as §1, §2
In general terms: Immunoblotting shows a protein as a band on a membrane.

[3] abbreviates: all timepoints, either material.

The structures appear in SMILES notation.

Turning to `CC(C)Oc1ccc(-c2cnc3c(-c4ccnc5ccccc45)cnn3c2)cc1` [DMH1, dorsomorphin homologue 1], the “total Smad5, total ERK1/2, RANKL, or actin” value in assay [1] is listed as “No differences”. Besides, in assay [1] (MC-GAG at day 4), the “phosphorylated ERK1/2” value is recorded as “small elevation”. Also, the “phosphorylation of Smad1/5” value in assay [1] (setting [3]) is recorded as “partially decreased”. Further, the OPG expression entry in assay [1] (both Col-GAG and MC-GAG, particularly day 14) is on record as “increased”.
For `COc1cccc(-c2cc(=O)c3ccccc3o2)c1N` [PD98059], the “phosphorylated Smad1/5, total Smad5, total ERK1/2, or actin” value in assay [2] was “no effects”. For the same molecule, the OPG protein expression result is reported as “no differences” in assay [2] (Col-GAG) and “decreased” in assay [2] (MC-GAG, all timepoints). Moreover, the RANKL expression result in assay [2] (Col-GAG) is reported as “no differences”; in assay [2] (MC-GAG, particularly day 24), “downregulated”. Also, the “phosphorylated ERK1/2” value in assay [2] (setting [3]) is “decreased”.
